Experimental findings from patent publication US12059427B2, “Treatments for cachexia” (YINUOKE MEDICINE SCIENCE AND TECHNOLOGY COMPANY LTD., priority 2018, dated 2024) are described below.

Data set [1] has as its system cachectic Balb/c mice injected with C26 tumor cells. Description: Body weight of cachectic mice (C26 cachexia mouse model). The class given is in vivo.
The test system is the same in data set [2]. Description: Kaplan-Meier survival analysis of cachectic mice (C26 model). The format is in vivo, mouse.
[3] abbreviates: 0.3 mg Cytarabine, 0.1 mg Ketorolac or combination (0.3 mg + 0.1 mg) in PBS s.c. on three consecutive days (1 cycle), 8 days observation, vs untreated.
Setting [4] is: ~50 day period, two 3-day/one-injection-per-day cycles s.c., 0.3 mg Cytarabine, 0.1 mg Ketorolac or combination vs PBS.

Each structure is given as a SMILES string. “Also recorded” adds a separate entry of the source.

With `O=C(c1ccccc1)c1ccc2n1CC[C@H]2C(=O)O` [(R)-Ketorolac], the “body weight of cachectic mice” value is “reverse body weight drop” in data set [1] (0.05 mg orally, three consecutive days per cycle, 6 days/2 cycles, vs PBS); “regained body weight after initiation of the treatment and maintained stabilized body weight during the treatment” in data set [1] (0.05 mg orally, three consecutive days per cycle, 6 days/2 cycles, vs PBS, listed as (R)-ketorolac). Also, the “survival (Kaplan-Meier)” value in data set [2] (two cycles of daily oral administration, 40 day period, vs PBS vehicle) is recorded as “prolong survival of cachectic mice”; in data set [2] (two cycles of daily oral administration, 40 day period, vs PBS vehicle, listed as (R)-ketorolac) it was “significant efficacy as a single agent increasing the survival of cachectic mice”.
Consider `Nc1ccn([C@@H]2O[C@H](CO)[C@@H](O)[C@@H]2O)c(=O)n1` [Cytarabine, 1-(β-D-Arabinofuranosyl)cytosine], for which the “body weight of cachectic mice” value in data set [1] (setting [3]) is listed as “the body weight drop eventually reverses for all treated mice; also recorded: reverse body weight drop in cachectic mice”. Also, the “transient weight loss after treatment” value in data set [1] (days 0-5 after start of treatment, 0.3 mg Cytarabine alone vs combination with 0.1 mg Ketorolac, s.c.) is given as “transient weight loss seen on days 0-5”. Moreover, in data set [2] (setting [4]), the “survival (Kaplan-Meier)” value is recorded as “highly significant increase in survival; also recorded: prolong survival of cachectic mice”.
As for `O=C(c1ccccc1)c1ccc2n1CCC2C(=O)O` (stereo not drawn) [Ketorolac, Ketorolac tromethamine], in data set [1] (setting [3]), the “body weight of cachectic mice” value is “the body weight drop eventually reverses for all treated mice; also recorded: reverse body weight drop in cachectic mice”. Also, the “survival (Kaplan-Meier)” value in data set [2] (setting [4]) is reported as “finally ketorolac alone”.
